Article PMC11392399, “The final walk with preptin” (PLOS ONE, 2024)
No end group written: not given here.

Legend:
[1] = test system: IR-A in IM-9 lymphocytes; assay: Competitive binding assay for IR-A with [125I]-monoiodotyrosyl-TyrA14-insulin; parameters: species or system human; settings: tracer 125I-insulin, only at the concentrations > 10^-6M, n ≥ 3
Text: (§1) We also tested whether non-labeled preptins can bind to any of receptors for IGF2 (i.e. IR, IGF1R and IGF2R) in competitive binding assays, employing ^125I-labeled human insulin, IGF1 or IGF2. To determine binding to the IGF1R, we used mouse fibroblasts transfected with human IGF1R and with deleted mouse IGF1R (R+39 cells), according to Hexnerova et al.. We used non-transfected 3T3 fibroblasts to determine binding to IGF2R, because these cells contain essentially only IGF2R [5] and we used human IM-9 lymphocytes to determine affinity for IR-A [31].
(§2) Binding affinities of ligands for IGF1R were determined with [^125I]-Iodotyrosyl-IGF1 (2,614 Ci/mmol) prepared in the IOCB radioisotope laboratory by a procedure described in Kertisova et al.. Binding affinities for IR-A were determined with [^125I]-monoiodotyrosyl-TyrA14-insulin (2,200 Ci/mmol), prepared as described by Asai et al.. […]
(§3) The dissociation constant (Kd) values were determined with GraphPad Prism 8, using a nonlinear regression method, a one-site fitting program and considering the potential depletion of free ligand. […] Relative binding affinities were calculated as (Kd of the native hormone/Kd of analog) × 100 (in %). The relative binding affinity S.D. values of analogs were calculated as S.D. = Kd of the native hormone/Kd of peptide ×100 × √[(S.D. native/Kd native)^2 + (S.D. analog/Kd analog)^2].

[2] = test system: intracellular calcium in U-2 OS osteoblasts; assay: Changes in intracellular calcium, U-2 OS osteoblasts; assay type: cell-based, human; settings: U-2 OS cells; 10^−4 M; Fluo-8 fluorescence, (Fmax−F0)/F0; one-way ANOVA
Experimental: (§4) The day before the experiment, U-2 OS, MC3T3-E1, MIN6 and cAMP-HEK cells were seeded 6 000 (for osteoblastic cell lines U-2 OS, MC3T3-E1), 10 000 (for cAMP-HEK cells) or 30 000 (MIN6) cells per well in a black 384-well format micro plate with transparent bottom (Cat.#: 142761, Nunc, Thermo Fisher Scientific, USA). On the next day, the cultivation media was exchanged for assay buffer, consisting of HBSS (Cat.#: H6648-500ML, Sigma-Aldrich, Merck, Germany), 20 mM HEPES (Cat.#: L0180-100, Biowest, France), 2.5 mM Probenecid (Cat.#: P8761, Sigma-Aldrich, Merck, Germany), adjusted for pH 7.4 and supplemented with 4.77 μM CalciFluor™ Fluo-8, AM (Cat.#: 1345980-40-6, Santa Cruz Biotechnology, USA). After 45 min incubation with assay buffer in 37°C and 5% CO2, the cells were incubated at RT in a dark place for another 15 minutes. After this time, preptin and its analogs were added by the Agilent Bravo Automated Liquid Handling Platform (Agilent Technologies, USA). The kinetics were measured by the Spark® multimode reader from Tecan (Tecan Group Ltd., Switzerland) for 10 min (approximately 45 cycles, excitation 485 nm, emission 535 nm, band width 10 nm). Before each kinetics, the background fluorescence (F0) was measured and the result was calculated as (Fmax−F0)/F0, where Fmax corresponds to the maximum response upon stimulation by the compounds. Each compound was tested in concentration 10^−4 M.

[3] = test system: intracellular calcium in MIN6 pancreatic beta cells; assay: Changes in intracellular calcium, MIN6 cells; assay type: cell-based, mouse; settings: 10^−4 M, Fluo-8 fluorescence, (Fmax−F0)/F0, one-way ANOVA
Experimental: as §4, with “Each compound was tested in concentration 10^−4 M.” left out

[4] = test system: hBMSC-TERT; assay: Osteoblast differentiation of hBMSC-TERT, alkaline phosphatase (ALP) activity assay; assay type: cell-based, human; settings: for ALP activity normalized to cell viability, compared to unstimulated cells: 100 ng/ml, 500 ng/ml and 1 ug/ml, day 7 of OB differentiation, changes not significant; for osteoblast differentiation of hBMSCs: summary in the conclusions
Experimental: hBMSC-TERT were plated at a density of 20 000 cells/cm^2 (Alizarin Red S staining) and 5 000 cells/well (ALP activity assay) in MEM medium (Gibco), supplemented with 10 % FBS (Gibco) and 1 % P/S (Gibco). One day after seeding, the medium was replaced with OB induction medium, composed of basal medium, supplemented with 10 mM B-glycerophosphate (Sigma-Aldrich), 10 nM dexamethasone (Sigma-Aldrich), 50 μg/mL vitamin C (Sigma-Aldrich), 10 nM vitamin D3 (Sigma-Aldrich) and treated with 100 ng/ml, 500 ng/ml and 1 ug/ml IGF2, IGF1, IGF2, preptin or vehicle (acetic acid) as a control. The medium was changed every other day for 7 days (ALP activity assay) or 10 days (Alizarin Red S staining).
ALP activity and cell viability assay were quantified at Day 7 of OB differentiation, in order to normalize the ALP activity data to the number of viable cells.
Cell viability assay was measured using a Cell Titer-Blue Assay Reagent (Promega) at fluorescence intensity (579Ex/584Em). ALP activity was detected by absorbance at 405 nm, using p-nitrophenyl phosphate (Sigma-Aldrich) as substrate.

[5] = test system: human primary osteoblasts; settings: 8 days, ref [17] Bosetti et al.; cited from earlier work
[6] = test system: cAMP in U-2 OS osteoblasts; assay: Changes in cAMP levels (GloSensor), U-2 OS osteoblasts; assay type: cell-based, human; settings: 10^−4 M, GloSensor luminescence, (Lmax−L0)/L0, forskolin positive control
Experimental: Intracellular cAMP concentration was measured using Promega’s Glosensor on osteoblasts U-2 OS, pancreatic β-cells MIN6 and control cAMP-HEK cells (with stable transfection of F22 plasmid as described above). U-2 OS cells were transfected with F22 plasmid (pGloSensor™-22F, Promega, USA, 6.1 μg of plasmid per 1 million cells) using X-tremeGENE (Sigma-Aldrich, Germany). The ratio of plasmid and transfection reagent was 1:3 (plasmid: X-tremeGENE, m/v). The MIN6 cells were transfected with F22 plasmid in the same concentration as U-2 OS using electroporation by the Invitrogen™ Neon™ Transfection System Instrument (Thermo Fisher Scientific, USA, transfection conditions: 1400 V, 20 ms, 1 pulse). […]
After 24 hours (U-2 OS and cAMP-HEK cells) or 48 hours, respectively (MIN6 cells), cultivation media was changed for assay buffer (HBSS buffer with 20 mM HEPES and 2% (v/v) (cAMP-HEK, U-2 OS cells) or 6% (v/v), respectively (MIN6 cells), GloSensor™ reagent stock solution). The plate was incubated in the dark for 1–2 hours at RT and luminescence was measured until a stable signal was observed (L0). […] The luminescence kinetics were measured by Spark® for 30 min. The result was calculated as (Lmax−L0)/L0, where Lmax corresponds to the maximum response upon stimulation by the compounds. […]

[7] = test system: phosphorylation of Akt in MC3T3-E1 preosteoblasts; assay: Stimulation of phosphorylation of Akt, MC3T3-E1 preosteoblasts; assay type: cell-based, mouse; settings: 10^-8M, 5 min at RT, Western blot, n = 4, one-way ANOVA
Experimental: For measuring activation of intracellular signaling pathways, 40 000 of MC3T3-E1, U-2 OS and 3T3-R- cells per well and 100 000 of MIN6 cells per well were seeded in a 24-well plate, two days before stimulation. Cells’ stimulations were done after overnight starvation in a clean culture medium without serum. Cells were stimulated using preptins and their analogs at 10^-8M concentration for 5 min at RT. Cells were washed with PBS and froze immediately. Samples for immunoblots were prepared in Sample lysis buffer (62,5 mM Tris/HCl, 2 % SDS (w/v), 10 % glycerol (v/v), 0,01 % Brom-phenol Blue (w/v), 0,1M DTT, 50mM NaF, 1mM Na3VO4, 0,5 % protease inhibitory complex (v/v), pH 6,8).
Western blots were similarly used to study signaling pathways activated by our preptins in all cell lines mentioned above. Proteins were routinely analyzed using immunoblotting. […] The data are expressed as the contribution of target phosphorylation relative to non-stimulated cells (MC3T3-E1, U-2 OS, 3T3-R- and MIN6). Mean ± S.D. (n = 4) values were calculated. The significance of the changes in stimulation of phosphorylation in relation to unstimulated cells was calculated, using the One-way-ANOVA comparing all preptins and their analogs versus control non-stimulated cells.

[8] = test system: IGF2R; assay: Competitive binding assay for IGF2R with [125I]-monoiodotyrosyl-Tyr2-IGF2; parameters: species or system mouse; settings: R- cells with IGF2R; tracer 125I-IGF2; n ≥ 3
Text: as §1, §2, §3

[9] = test system: intracellular calcium in U-2 OS cells; settings: previous paper, different method, ref [21]; cited from earlier work
Text: It is well known that Ca^2+ regulates numerous physiological cellular processes as a second messenger. It plays a vital role in the regulation of cell proliferation, and its increased level is critical for secretagogue-induced insulin release in pancreatic beta cells. […] If preptin or its analogs were proficient insulin secretagogues or had any effect on bone cells, we would e ...

[10] = test system: human IGF1R; assay: Competitive binding assay for IGF1R with [125I]-Iodotyrosyl-IGF1; settings: fibroblasts with IGF1R (R+39 cells); tracer 125I-IGF1; n ≥ 3
Text: as §1, §2, §3

## DVSTPPTVLPDNFPRYPVGKFFQYDTWKQSTQRL [peptide 1, native human preptin]
[1]
  binding to IR-A: weak binding

## DVSTSQAVLPDDFPRYPVGZFFQYDTWRQSAGRL [peptide 15, Mouse preptin with Aib (Z) at position 20]
[2]
  changes in intracellular calcium relative to non-stimulated cells: significant increase in intracellular calcium levels

## DVTTSQAVLPDDFPRY [peptide 17, Mouse preptin fragment]
[3]
  changes in intracellular calcium relative to non-stimulated cells: completely inhibited calcium secretion

## FPRYPVGKFFQYNTW-NH2 [peptide 18, Mouse preptin fragment, amino acids 13–27, amidated C-end]
[2]
  changes in intracellular calcium relative to non-stimulated cells: significant increase in intracellular calcium levels

## IGF2: insulin-like growth factor 2, comparator hormone
[4]
  ALP activity normalized to cell viability, compared to unstimulated cells: signs of higher ALP activity
  osteoblast differentiation of hBMSCs: neither preptin nor IGF2 significantly increased
[5]
  change in ALP activity: no significant effects

## PVGKFFQYDTWKQSTQRL [peptide 3, Human preptin fragment]
[1]
  binding to IR-A: weak binding

## TWKQSTQRL-NH2 [peptide 13, Human preptin fragment]
[6]
  changes in cAMP levels relative to non-stimulated cells: significant decrease of cAMP
[7]
  phosphorylation of Akt relative to non-stimulated cells: Significantly lower phosphorylation of Akt

## WKQSTQRL-NH2 [peptide 12, Human preptin fragment]
[7]
  phosphorylation of Akt relative to non-stimulated cells: Significantly lower phosphorylation of Akt

## preptin: 34-amino acid peptide derived from pro-IGF2; species or peptide number not stated at the place (DVSTPPTVLPDNFPRYPVGKFFQYDTWKQSTQRL; Preptin; UniProt P01344 93-126, looked up)
[8]
  displacement of native ligand from IGF2R: did not displace native ligands even at the highest concentrations used
[4]
  ALP activity normalized to cell viability, compared to unstimulated cells: signs of higher ALP activity
  osteoblast differentiation of hBMSCs: neither preptin nor IGF2 significantly increased
[5]
  change in ALP activity: no significant effects
[9]
  changes in intracellular calcium levels: able to induce changes in intracellular calcium levels
[10]
  displacement of native ligand from IGF1R: did not displace native ligands even at the highest concentrations used
